From the NIST ThermoML archive (doi:10.1021/acs.jced.5b00447)
Numbers after ± are expanded uncertainties.

Assays:
[1] = for surface tension liquid-gas: wilhelmi plate; for viscosity / speed of sound / mass density: 100 kPa, Liquid; for viscosity: Capillary tube (Ostwald / Ubbelohde) method; for speed of sound: Frequency=3 MHz, Sing-around technique in a fixed-path interferometer; for mass density: Vibrating tube method
[2] = xn = mol fraction of the nth substance listed; settings: for surface tension liquid-gas: wilhelmi plate; for viscosity / speed of sound / mass density: 100 kPa, Liquid; for viscosity: Capillary tube (Ostwald / Ubbelohde) method; for speed of sound: Frequency=3 MHz, Sing-around technique in a fixed-path interferometer; for mass density: Vibrating tube method

CN(C)CCO [2-(N,N-dimethylamino)ethanol]
[1], 298.15 K
Settings | mass density [kg/m3] | speed of sound [m/s] | surface tension liquid-gas [mN/m] | viscosity [mPa·s]
– | 882.8 ± 2.1 | 1335.9 ± 2.5 | 31.3 ± 0.4 | 3.69 ± 0.42

NCCO [2-aminoethan-1-ol]
[1], 298.15 K
Settings | mass density [kg/m3] | speed of sound [m/s] | surface tension liquid-gas [mN/m] | viscosity [mPa·s]
– | 1012 ± 2 | 1719.2 ± 1.9 | 49.1 ± 0.4 | 18.74 ± 4.7

CN(C)CCN [2-dimethylamino-1-ethylamine]
[1]
Settings | mass density [kg/m3] | speed of sound [m/s] | surface tension liquid-gas [mN/m] | viscosity [mPa·s]
293.15 K | 819 ± 2 | 1319.6 ± 2.5 | 26.4 ± 0.4 | 0.988 ± 0.075
298.15 K | 814.3 ± 2.1 | 1300.8 ± 2.5 | 26.1 ± 0.4 | 0.895 ± 0.068
303.15 K | 810 ± 2 | 1279.3 ± 2.5 | 25.8 ± 0.4 | 0.819 ± 0.054
313.15 K | 801 ± 2 | 1239 ± 2.5 | 25.2 ± 0.4 | 0.693 ± 0.045
323.15 K | 791 ± 2 | 1199.3 ± 2.5 | 24.5 ± 0.4 | 0.596 ± 0.039

CN(C)CCN [2-dimethylamino-1-ethylamine] + NCCO
[2], x1 = 0.5
Settings | mass density [kg/m3] | speed of sound [m/s] | surface tension liquid-gas [mN/m] | viscosity [mPa·s]
293.15 K | 941 ± 2 | 1498.1 ± 2.2 | 32.4 ± 0.4 | 10.74 ± 0.095
303.15 K | 932 ± 2 | 1463.7 ± 2.2 | 31.6 ± 0.4 | 7.169 ± 0.065
313.15 K | 924 ± 2 | 1428.9 ± 2.2 | 30.9 ± 0.4 | 5.066 ± 0.047
323.15 K | 916 ± 2 | 1394.1 ± 2.2 | 30.3 ± 0.4 | 3.517 ± 0.033

O [water]
[1]
Settings | mass density [kg/m3] | speed of sound [m/s] | surface tension liquid-gas [mN/m] | viscosity [mPa·s]
293.15 K | 998 ± 2 | – | 72.6 ± 0.3 | 0.993 ± 0.082
298.15 K | – | – | 72.1 ± 0.3 | 0.891 ± 0.079
303.15 K | 996 ± 2 | – | 71.1 ± 0.3 | 0.797 ± 0.063
313.15 K | 992 ± 2 | 1529.1 ± 1.6 | 69.2 ± 0.3 | 0.654 ± 0.05
323.15 K | 988 ± 2 | – | 67.7 ± 0.3 | 0.547 ± 0.043

O [water] + CN(C)CCN
[2], x2 = 0
Settings | mass density [kg/m3] | speed of sound [m/s] | surface tension liquid-gas [mN/m] | viscosity [mPa·s]
293.15 K | 998 ± 2 | – | 72.6 ± 0.6 | 0.993 ± 0.006
303.15 K | 996 ± 2 | – | 71.1 ± 0.6 | 0.797 ± 0.005
313.15 K | 992 ± 2 | 1529.1 ± 1.6 | 69.2 ± 0.6 | 0.654 ± 0.005
323.15 K | 988 ± 2 | – | 67.7 ± 0.6 | 0.547 ± 0.004
